Experimental data from patent publication US20250261636A1, “QUATERNARY AMMONIUM SANITIZING COMPOSITION” (ECOLAB USA INC., priority 2020, published 2025).
Several values for one entry are separate records, joined by “and”; a condition that tells them apart may be missing. Equal entries are not always repeated.

Experiments:
[1] = test system: Staphylococcus aureus ATCC 6538; test: AOAC Method 960.09 Germicidal and Detergent Sanitizing Action of Disinfectants, food contact sanitizing suspension test; assay type: cell-based; settings: 30 ppm, pH 5, 120° F.
Protocol: (§1) The microbial efficacy of the multipurpose sanitizing composition was evaluated for food contact applications. The purpose of the testing is to determine the efficacy of compositions used for sanitizing food contact surfaces, which in the evaluations were pre-cleaned, non-porous surfaces using AOAC Method 960.09 Germicidal and Detergent Sanitizing Action of Disinfectants. […] The test organisms included Staphylococcus aureus ATCC 6538 and Escherichia coli ATCC 11229.
(§2) The pH was adjusted by use of a polycarboxylic acid (unless otherwise noted, such as the polycarboxylate citrate tested at pH 8). In this screening test pH 9, 8, 7, 5, 4, and 3 were tested. “NT” indicates a condition was “Not Tested.”

[2] = test system: Escherichia coli ATCC 11229; test: as above; assay type: cell-based; settings: 30 ppm, pH 5, 120° F.
Protocol: as §1, §2

didecyl dimethyl ammonium methyl sulfonate/sulfate [Quat]
log reduction S. aureus (ATCC 6538) [1]: 6.69 log | Average Log Reduction [2]: 4.93 log | Log Reduction ([2]; per replicate, listed as Stepan Quat): 4.85 log and 5.02 log | CFU - Dilution 1E−01 ([2]; listed as Stepan Quat): 63 CFU and 46 CFU | CFU/mL ([2]; listed as Stepan Quat): 6.8E+02 CFU/mL and 4.6E+02 CFU/mL | Log ([2]; listed as Stepan Quat): 2.83 and 2.67
